Assay results as given in US20120045523A1, “COMBINATION OF A TLR3 LIGAND AND A CHEMOTHERAPY AGENT WHICH ACTS ON THE INTRINSIC "APOPTOSIS" PATHWAY IN THE TREATMENT OF CANCER” (UNIVERSITE CLAUDE BERNARD LYON I, priority 2008, published 2012).
Read-outs that look alike come from different tables or passages of the source.

Legend:
NCI-H292 cells [1] = test: Number of living cells (MTS, CellTiter 96 AQueous One) after chemotherapy and/or poly(I:C); conditions: for CI (combination index): agent in combination with poly(I:C), average CI; for nature of interaction with poly(I:C), from CI: combination with poly(I:C)
NCI-H1703 cells [2] = test: as above; format: cell-based, human; conditions: for CI (combination index) / IC50 / nature of interaction with poly(I:C), from CI / reduction of the number of living cells: NCI-H1703; for CI (combination index): agent in combination with poly(I:C), average CI; for nature of interaction with poly(I:C), from CI: combination with poly(I:C); for cytotoxicity at 4 µM: NCI-H1703, NCI-H1703, FIG. 1B, read-out: loss of viable cells; for reduction of the number of living cells: FIG. 1A
NCI-H292 cells [3] = test: Annexin V-FITC/propidium iodide labeling, flow cytometry (apoptosis); format: cell-based, human; conditions: NCIH-292; annexin V after 24 h; concentrations at IC50; FIG. 4
Excerpt: The duplexes of control small interfering RNA (siRNA; Dharmacon) and siRNA specific for caspase 8 and caspase 9 (Qiagen) used are as follows: 1) control: ON-TARGETplus siCONTROL Non-Targeting siRNA #3; caspase 8 sense 5′-r(GAG UCU GUG CCC AAA UCA A)dTdT-3′, caspase 8 antisense 5′-r(UUG AUU UGG GCA CAG ACU C)dTdT-3′; caspase 9 sense 5′-r(GAG UGG CUC CUG GUA CGU U)dTdT-3′, caspase 9 antisense 5′-r(AAC GUA CCA GGA GCC ACU C)dTdT-3′. The siRNAs were transfected by the HiPerFect (Qiagen) transfection reagent according to the manufacturer's recommendations. Briefly, NCI-H1703 or NCI-H292 cells are cultured in 100 mm dishes, dislodged by trypsin, placed in 24-well plates at a concentration of 50,000 cells in 400 μl of medium per well and incubated at 37° C. during preparation of the mixes. Mixes for each well of a 24-well plate are prepared as follows: the siRNA duplexes are diluted in 100 μl of serum-free and antibiotic-free culture medium, 3 μl of HiPerFect is added, and then the solution is vortexed and incubated for 5-10 min at room temperature. […] For these conditions, the effectiveness of caspase 8 and caspase 9 siRNAs in decreasing the level of expression of caspase 8 and caspase 9 proteins, respectively, were measured by western blot, and reaches roughly 85% for caspase 8 siRNA and 75% for caspase 9 siRNA. […]

NCI-H1703 cells [4] = test: as above; format: cell-based, human; conditions: for effect of 2 h exposure to agent before poly(I:C) on percentage of apoptotic cells: NCIH-1703, annexin V after 24 h, concentrations at IC50, FIG. 4
Excerpt: The duplexes of control small interfering RNA (siRNA; Dharmacon) and siRNA specific for caspase 8 and caspase 9 (Qiagen) used are as follows: 1) control: ON-TARGETplus siCONTROL Non-Targeting siRNA #3; caspase 8 sense 5′-r(GAG UCU GUG CCC AAA UCA A)dTdT-3′, caspase 8 antisense 5′-r(UUG AUU UGG GCA CAG ACU C)dTdT-3′; caspase 9 sense 5′-r(GAG UGG CUC CUG GUA CGU U)dTdT-3′, caspase 9 antisense 5′-r(AAC GUA CCA GGA GCC ACU C)dTdT-3′. The siRNAs were transfected by the HiPerFect (Qiagen) transfection reagent according to the manufacturer's recommendations. Briefly, NCI-H1703 or NCI-H292 cells are cultured in 100 mm dishes, dislodged by trypsin, placed in 24-well plates at a concentration of 50,000 cells in 400 μl of medium per well and incubated at 37° C. during preparation of the mixes. Mixes for each well of a 24-well plate are prepared as follows: the siRNA duplexes are diluted in 100 μl of serum-free and antibiotic-free culture medium, 3 μl of HiPerFect is added, and then the solution is vortexed and incubated for 5-10 min at room temperature. 100 μl of mix is then added drop by drop to the cells and the mixture is homogenized by shaking the plate. The culture medium is changed the following day. The final siRNA concentration is 5 nM and treatment with poly(I:C) begins 72 h after transfection. For these conditions, the effectiveness of caspase 8 and caspase 9 siRNAs in decreasing the level of expression of caspase 8 and caspase 9 proteins, respectively, were measured by western blot, and reaches roughly 85% for caspase 8 siRNA and 75% for caspase 9 siRNA.
In relation to the mechanism of reduction of the number of living cells, the percentage of cells labeled with annexin V after culture after treatment with poly(I:C) was determined by flow cytometry. […] Seventy-two hours after transfection of the control (sictrl), caspase (sicasp8), caspase 9 (sicasp9) or caspase 8+caspase 9 (sicasp8+9) siRNAs, NCI-H1703 cells are treated with 100 μg/ml of poly(I:C) for 24 h or are not treated. The percentage of annexin V-positive cells is measured by flow cytometry. The results presented are the average of three experiments carried out independently. Error Bar, ±SE.
Poly(I:C) induces apoptosis of NSCLC NCIH-1703 and NCIH-292 cell lines. To determine whether the greater reduction in the number of cells alive after treatment with the combination of poly(I:C) and cisplatin or etoposide resulted at least partially from an increase in apoptosis, the cells were labeled with annexin V after 24 h of culture as described in the “Materials and methods” section above.

NCI-H1703 cells [5] = test: Viability of cells cultured 24 h with poly(I:C) and wortmannin; format: cell-based, human
Protocol: Similarly, a study was undertaken to determine the viability of cells of the NCI-H1703 human squamous cell lung cancer cell line cultured for 24 h in the presence of TLR3 ligand (poly(I:C), 100 μg/ml) at various concentrations (0 μM, 0.1 μM and 1.0 μM) of wortmannin, a specific PI3 kinase inhibitor.
In the same way, a study was undertaken to determine the percentage of cells of the NCI-H1703 human squamous cell lung cancer cell line in apoptosis (FACS analysis after labeling with annexin V-FITC/propidium iodide) after culture for 24 h in the presence of TLR3 ligand (poly(I:C), 100 μg/ml) with various concentrations (0 μM, 0.1 μM and 1.0 μM) of specific PI3 kinase inhibitor, wortmannin (WM). […] Moreover, the synergy is strong: with 1 μM wortmannin alone, 6% fewer living cells are observed after 24 h; with 100 μg/ml poly(I:C) alone, 26% fewer living cells are observed after 24 h; when both molecules are used in combination at these same concentrations, however, 71% fewer living cells are observed after 24 h.

TLR3 = test: Apoptosis induced by TLR3 ligands, with siRNA inhibition of receptors; format: cell-based
Excerpt: “Specific TLR3 ligand” refers to a ligand that is recognized only by the TLR3 membrane receptor, and not by intracellular receptors such as RIG-I, MDA-5 and PKR. Examples of such a ligand includes the ligand poly(A:U) or specific synthetic double-stranded RNA, in contrast with poly(I:C) whose activity is based not only on its interaction with TLR3 but also by intracellular receptors, whereas poly(A:U) acts specifically on TLR3.

[6] = chemotherapeutic agent used alone, 2 h exposure, then 70 h culture, read-out: IC50
[7] = NCI-H292, chemotherapeutic agent used alone, 2 h exposure, then 70 h culture
[8] = Homo sapiens, chemotherapeutic agent used alone, 2 h exposure, then 70 h culture, read-out: IC50

| Compound | IC50 (NCI-H292 cells [1]; Homo sapiens, NCI-H292) | CI (combination index) (NCI-H292 cells [1]; NCI-H292) | nature of interaction with poly(I:C), from CI (NCI-H292 cells [1]; NCI-H292) | CI (combination index) (NCI-H1703 cells [2]) | nature of interaction with poly(I:C), from CI (NCI-H1703 cells [2]) | IC50 (NCI-H1703 cells [2]; [8]) | other results |
| --- | --- | --- | --- | --- | --- | --- | --- |
| O=c1[nH]cc(F)c(=O)[nH]1 [5-Fluouracile, 5-fluorouracil] | 133 µM | 0.78 ± 0.09 | moderate synergy | – | – | – | – |
| N.N.[Cl][Pt][Cl] [Cisplatin, cisplatin] | – | 0.50 ± 0.08 | strong synergy | 0.62 ± 0.03 | strong synergy | – | IC50 (NCI-H1703 cells [2]; [6]): 1.1 µM; effect of 2 h exposure to agent before poly(I:C) on percentage of apoptotic cells (NCI-H292 cells [3]): statistically significant only for the NCIH-292 cell line; effect of 2 h exposure to agent before poly(I:C) on percentage of apoptotic cells (NCI-H1703 cells [4]): increases the percentage of apoptotic cells; IC50 (NCI-H292 cells [1]; [7]): 3.4 µM |
| CC(=O)O[C@@]12CO[C@@H]1C[C@H](O)[C@@]1(C)C(=O)[C@H](O)C3=C(C)[C@@H](OC(=O)[C@H](O)[C@@H](NC(=O)OC(C)(C)C)c4ccccc4)C[C@@](O)([C@@H](OC(=O)c4ccccc4)[C@H]21)C3(C)C [Docetaxel, docetaxel] | 10.6 µM | 0.68 ± 0.2 | moderate synergy | – | – | – | – |
| COc1cccc2c1C(=O)c1c(O)c3c(c(O)c1C2=O)C[C@@](O)(C(=O)CO)C[C@@H]3O[C@H]1C[C@H](N)[C@H](O)[C@H](C)O1 [Doxorubicin, doxorubicin] | 1.03 µM | 0.62 ± 0.08 | strong synergy | 0.72 ± 0.06 | strong synergy | 3.73 µM | – |
| COc1cc([C@@H]2c3cc4c(cc3[C@@H](O[C@@H]3O[C@@H]5CO[C@@H](C)O[C@H]5[C@H](O)[C@H]3O)[C@H]3COC(=O)[C@H]23)OCO4)cc(OC)c1O [Etoposide, etoposide] | 18.7 µM | 0.68 ± 0.11 | strong synergy | 0.59 ± 0.06 | strong synergy | 32.7 µM | cytotoxicity at 4 µM (NCI-H1703 cells [2]; Homo sapiens, etoposide 4 μM, then addition of 60 μg/ml poly(I:C)): ~60%; cytotoxicity at 4 µM (NCI-H1703 cells [2]; Homo sapiens, etoposide alone 4 μM): ~25%; effect of 2 h exposure to agent before poly(I:C) on percentage of apoptotic cells (NCI-H292 cells [3]): significant additive effect; effect of 2 h exposure to agent before poly(I:C) on percentage of apoptotic cells (NCI-H1703 cells [4]): significant additive effect; IC50 (NCI-H292 cells [1]; Homo sapiens, NCI-H292, read-out: concentration of etoposide in combination that decreases living cells by 50%): ~8 µM |
| Nc1ccn([C@@H]2O[C@H](CO)[C@@H](O)C2(F)F)c(=O)n1 [Gemcitabine, gemcitabine] | 0.6 µM | 1.3 ± 0.24 | antagonism | 1.0 ± 0.07 | additivity without synergy | 0.9 µM | – |
| O=C1[O][Pt]2([NH][C@@H]3CCCC[C@H]3[NH]2)[O]C1=O [Oxaliplatin, oxaliplatin] | – | – | strong synergy | – | strong synergy | – | IC50 (NCI-H1703 cells [2]; [6]): 170 µM; IC50 (NCI-H292 cells [1]; [7]): 123 µM |
| CC(=O)O[C@H]1C(=O)[C@@]2(C)[C@H]([C@H](OC(=O)c3ccccc3)[C@]3(O)C[C@H](OC(=O)[C@H](O)[C@@H](NC(=O)c4ccccc4)c4ccccc4)C(C)=C1C3(C)C)[C@]1(OC(C)=O)CO[C@@H]1C[C@@H]2O [Paclitaxel, paclitaxel] | 0.21 µM | 0.71 ± 0.0064 | moderate synergy | 0.83 ± 0.012 | moderate synergy | 0.12 µM | – |
| COC[C@H]1OC(=O)c2coc3c2[C@@]1(C)C1=C(C3=O)[C@@H]2CCC(=O)[C@@]2(C)C[C@H]1OC(C)=O [wortmannin] | – | – | – | – | – | – | fewer living cells (NCI-H1703 cells [5]; 1 μM wortmannin + 100 μg/ml poly(I:C) in combination): 71%; fewer living cells (NCI-H1703 cells [5]; 1 μM wortmannin alone): 6% |
| polyadenylic-polyuridylic acid [poly(A:U)] | – | – | – | – | – | – | induction of apoptosis (TLR3; cells sensitive to poly(I:C)): triggers apoptosis |
| polyinosinic-polycytidylic acid [poly(I:C)] | – | – | – | – | – | – | reduction of the number of living cells (NCI-H1703 cells [2]; poly(I:C) 4 μg/ml after pre-incubation for 2 h with 20 μM etoposide): ~70%; reduction of the number of living cells (NCI-H1703 cells [2]; poly(I:C) alone 4 μg/ml): ~35%; IC50 (NCI-H1703 cells [2]; poly(I:C) used alone, 50% fewer cells than untreated control): 19.9 µg/mL; fraction of cells in apoptosis (annexin V-positive) (NCI-H1703 cells [4]; NCI-H1703, 100 μg/ml poly(I:C), 24 h, 11% in control wells, FIG. 2): ⅓; percentage of apoptotic cells (annexin V-positive) (NCI-H1703 cells [4]; NCI-H1703, 100 μg/ml poly(I:C), 24 h, caspase 8 expression inhibited by siRNA): ~20%; effect of suppression of caspase 9 expression on poly(I:C)-induced apoptosis (NCI-H1703 cells [4]; NCI-H1703, 100 μg/ml poly(I:C), 24 h, caspase 9 siRNA): no significant effect; fewer living cells (NCI-H1703 cells [5]; 100 μg/ml poly(I:C) alone): 26%; effect of siRNA inhibition of RIG-I, MDA-5 and PKR expression on poly(I:C) apoptotic activity (TLR3; siRNA against RIG-I, MDA-5, PKR): has no effect; effect of siRNA inhibition of TLR3 or TRIF on poly(I:C)-induced apoptosis (TLR3; siRNA against TLR3 or TRIF): inhibits apoptosis; IC50 (NCI-H292 cells [1]; NCI-H292, poly(I:C) used alone, 50% fewer cells than untreated control): 14.3 µg/mL |
